Test results taken from US20160000071A1, “PHOTODEGRADABLE, BIOCOMPATIBLE AND EFFICIENT NANO-ENCAPSULATED FORMULATION” (priority 2014, published 2016).

How the values were obtained:
[1] = system: newly-ecdysed fifth instar larvae of G. pyloalis; experiment: Leaf dip bioassay; type: in vivo, Glyphodes pyloalis Walker; details: Glyphodes pyloalis, foliar
Description: (§1) The insects used in the present application is Glyphodes pyloalis Walker (Lepidoptera: Pyralidae) which was collected from infested mulberry orchards in the vicinity of Rasht, Iran. Mass rearing of insects was carried out in the laboratory under controlled conditions at 25±1° C., 70±5% RH and 16:8 L:D. Newly-ecdysed fifth instar larvae of G. pyloalis were used for the bioassay experiments. The Glyphodes pyloalis Walker hereinafter is referred to as G. pyloalis.
The toxicity of the encapsulated imidacloprid diluted in water for the newly-ecdysed fifth instar larvae of G. pyloalis was evaluated using leaf dip bioassay. The technical imidacloprid was dissolved in acetone and diluted to generate 6 serial dilutions with distilled water. Mulberry leaf discs with diameters of 3.5 cm were prepared, so that each petiole was placed in a vial containing water for providing moisture to the leaf discs for several days. These discs were then immersed in the dilutions for 45 seconds. Mortality was assessed after the treated larvae were maintained at 25±1° C., 70±10 R.H. for 24, 48, 72, 96 and 120 hours.

[2] = system: newly ecdysed fifth instar larvae of G. pyloalis; experiment: Topical bioassay; type: in vivo, Glyphodes pyloalis Walker; details: Glyphodes pyloalis
Description: as §1
To determine the efficacy of the encapsulated nano-IMI prepared using ethanol, a topical bioassay was performed. In the preliminary tests, 5 concentrations of bulk and nano-IMI were tested. […] Fifty larvae per concentration were used for all experiments and each experiment was replicated 4 times; 1 μl of the desired concentration was topically applied to the metathoracic tergum. The controls received 1 μl of ethanol in the same way. The treated larvae were allowed to eat fresh leaves. After 24, 48, 72 and 96 h, the numbers of dead larvae were recorded.

`O=[N+]([O-])NC1=NCCN1Cc1ccc(Cl)nc1` [Imidacloprid] gave a mortality at 50 ppm ([1]; 24 h after treatment) of 2.5 ± 2%, a mortality at 50 ppm ([1]; 48 h after treatment) of 15.6% and a mortality at 50 ppm ([1]; 72 h after treatment) of 27%. It also gave a mortality at 50 ppm ([1]; 96 h after treatment) of 42.5%, a mortality at 50 ppm ([1]; 120 h after treatment) of 46.2 ± 2.39% and a mortality at 80 ppm ([1]; 24 h after treatment) of 8.82%. The mortality at 80 ppm ([1]; 48 h after treatment) was 23.8%, the mortality at 80 ppm ([1]; 72 h after treatment) was 39.6 ± 3.33% and the mortality at 80 ppm ([1]; 96 h after treatment) was 57.8 ± 3.17%. For the same compound, the mortality at 80 ppm ([1]; 120 h after treatment) was 58.8 ± 3.75%, the mortality at 126 ppm ([1]; 24 h after treatment) was 21.9 ± 3.07% and the mortality at 126 ppm ([1]; 48 h after treatment) was 43.8 ± 2.39%. It also gave a mortality at 126 ppm ([1]; 72 h after treatment) of 58.6 ± 3.41%, a mortality at 126 ppm ([1]; 96 h after treatment) of 76.2 ± 3.17% and a mortality at 126 ppm ([1]; 120 h after treatment) of 78.8 ± 3.75%. For the same compound, the mortality at 200 ppm ([1]; 24 h after treatment) was 34.2 ± 2.09%, the mortality at 200 ppm ([1]; 48 h after treatment) was 55% and the mortality at 200 ppm ([1]; 72 h after treatment) was 71.7 ± 2.04%. The mortality at 200 ppm ([1]; 96 h after treatment) was 78.8 ± 2.39%, the mortality at 200 ppm ([1]; 120 h after treatment) was 80% and the mortality at 316 ppm ([1]; 24 h after treatment) was 39.2 ± 4.13%. The mortality at 316 ppm ([1]; 48 h after treatment) was 60%, the mortality at 316 ppm ([1]; 72 h after treatment) was 75% and the mortality at 316 ppm ([1]; 96 h after treatment) was 84.2 ± 3.37%. The mortality at 316 ppm ([1]; 120 h after treatment) was 86.2 ± 2.39%, the mortality at 500 ppm ([1]; 24 h after treatment) was 57.5 ± 2.04% and the mortality at 500 ppm ([1]; 48 h after treatment) was 77.6 ± 4%. It also gave a mortality at 500 ppm ([1]; 72 h after treatment) of 86.1 ± 1.63%, a mortality at 500 ppm ([1]; 96 h after treatment) of 100% and a mortality at 500 ppm ([1]; 120 h after treatment) of 100%. For the same compound, the mortality at 22 ppm ([2]; 24 h after treatment) was 18.1%, the mortality at 22 ppm ([2]; 48 h after treatment) was 20% and the mortality at 22 ppm ([2]; 72 h after treatment) was 22%. The mortality at 22 ppm ([2]; 96 h after treatment) was 24%, the mortality at 32 ppm ([2]; 24 h after treatment) was 33% and the mortality at 32 ppm ([2]; 48 h after treatment) was 35%. It also gave a mortality at 32 ppm ([2]; 72 h after treatment) of 36.5%, a mortality at 32 ppm ([2]; 96 h after treatment) of 38.2% and a mortality at 47.5 ppm ([2]; 24 h after treatment) of 50%. It also gave a mortality at 47.5 ppm ([2]; 48 h after treatment) of 52.1%, a mortality at 47.5 ppm ([2]; 72 h after treatment) of 54% and a mortality at 47.5 ppm ([2]; 96 h after treatment) of 56%. It also gave a mortality at 60 ppm ([2]; 24 h after treatment) of 76%, a mortality at 60 ppm ([2]; 48 h after treatment) of 78% and a mortality at 60 ppm ([2]; 72 h after treatment) of 80.4%. It also gave a mortality at 60 ppm ([2]; 96 h after treatment) of 82%.
